According to US20240207282A1, “METHOD OF INCREASING CHAPERONE MEDIATED AUTOPHAGY BY STABILIZING THE INTERACTION OF RETINOIC ACID RECEPTOR-ALPHA AND AN INHIBITOR” (ALBERT EINSTEIN COLLEGE OF MEDICINE, priority 2021, published 2024):

Experiments:
NIH3T3 cells = experiment: CMA activity, KFERQ-PS-Dendra reporter in NIH3T3 cells; format: cell-based, mouse; conditions: for CMA activation after washout: 12 h after washing out the compounds from the media; for CMA activating effect upon knock-down of NCoR1: NCoR1 KD NIH3T3, 20 μM, 24 h; for CMA activation: increasing concentrations, 12 or 24 h, compared with AR7
Method: CMA activity: Cells were transduced with lentivirus carrying the KFERQ-PS-Dendra reporter as before. Cells were photoactivated by exposure to a 3.5 mA (current constant) light emitting diode (LED: Norlux, 405 nm) for 3 min and then plated in glass-bottom 96 well plates. At the desired times, cells were fixed with 4% PFA and imaged using high-content microscopy (Operetta system, Perkin Elmer). Images were quantified using the manufacturer's software in a minimum of 1,200 cells in 9 independent fields per well. […] This was particularly important in the case of primary human cells where efficiency of transduction was approximately 65%. To avoid con-funding effects for drug-induced changes in cell volume or adherence to the plate that could bring a fraction of the cells per field outside of focus, we set a threshold to count only cells that have at least 1/10 of the average number of […] detected in the untreated wells for each cell type (3-4 puncta/cell in the case of NIH3T3 and N2a cells and 5 puncta/cell in primary human fibroblasts). To measure CMA in the tissues from KFERQ-Dendra mice, the organs of interest were fixed for 12 h at 4° C. in picric acid fixation buffer (2% formaldehyde, 0.2% picric acid in PBS, pH7.0) and then washed with 70% ethanol, followed by two washes in PBS. Tissues were immersed in 30% sucrose and then embedded in OCT for sectioning in a cryostat (Leica CM3050 S). After airdrying for 30 min, sections were stored at −20° C. until use. Slices were mounted in DAPI-Fluoromount-G to highlight the cell nucleus and allow quantification of puncta per cell. Images were acquired in x-y-z planes with an Axiovert 200 fluorescence microscope (Carl Zeiss Ltd) with a ×63 objective and 1.4 numerical aperture, mounted with an ApoTome.2 slider or with a Confocal microscope (TCS SP5; Leica) using an HCX Plan Apo CS×63.0 1.40 NA oil objective and the Leica Application Suite X (LAS X).

NIH3T3 = experiment: Intracellular proteolysis of long half-life proteins (3H-leucine); format: cell-based, mouse; conditions: 10 μM; duration of increase after addition
Method: Proteolysis was calculated from aliquots of the medium taken at different times and precipitated in trichloroacetic acid, as the amount of acid-precipitable radioactivity transformed to acid-soluble radioactivity at each time.

[1] = Pharmacokinetics in mice (plasma and brain); format: in vivo, mouse; conditions: mice; for brain to plasma ratio: i.v. or p.o.
Method: ICR (CD-1) male mice were fasted at least three hours and water was available ad libitum before the study. Animals were housed in a controlled environment, target conditions: temperature 18 to 29° C., relative humidity 30 to 70%. Temperature and relative humidity was monitored daily. An electronic time controlled lighting system was used to provide a 12 hr light/12 hr dark cycle. 3 mice for each indicated time point were administered 30 mg/Kg CA39 or CA77 by oral gavage or 1 mg/Kg CA39 or CA77 by intravenous injection using 30% PEG-400, 65% D5W (5% dextrose in water), 5% Tween-80 vehicle. Mice were sacrificed, and brain samples were harvested at 0 hr, 0.25 hr, 0.5 hr, 1 hr, 2 hr, 4 hr, 8 hr, 24 hr, and analyzed for CA39 or CA77 levels using LC-MS/MS. Pharmacokinetics parameters were calculated using Phoenix WinNonlin 6.3. Experiments performed at SIMM-SERVIER joint Biopharmacy Laboratory.

neuron-related cells = experiment: CMA activity, KFERQ-PS-Dendra reporter in neuron-related cells; format: cell-based, mouse; conditions: for CMA activation: neuronal-related mouse cells
Method: (§1) Cells: NIH3T3 mouse fibroblasts and the N2a neuroblastoma cell line were obtained from the American Type Culture Collection and were validated by genomic PCR. Primary human fibroblasts (GM01651) were from Coriell Repository. All the cells lines were tested for mycoplasma contamination using DNA staining protocol with Hoechst 33258 dye. Knock-down of NCoR1 was done using lentiviral mediated shRNA (SHCLNG-NM_011308) from the Sigma Mission library following standard procedures. Efficiency of knock-down was tested by immunoblot. Cell viability was measured using the CellTiter-Blue kit (Promega) 24 h after the addition of the different stressors according to manufacturer's instructions.
(§2) CMA activity: Cells were transduced with lentivirus carrying the KFERQ-PS-Dendra reporter as before. Cells were photoactivated by exposure to a 3.5 mA (current constant) light emitting diode (LED: Norlux, 405 nm) for 3 min and then plated in glass-bottom 96 well plates. At the desired times, cells were fixed with 4% PFA and imaged using high-content microscopy (Operetta system, Perkin Elmer). Images were quantified using the manufacturer's software in a minimum of 1,200 cells in 9 independent fields per well. […] To avoid con-funding effects for drug-induced changes in cell volume or adherence to the plate that could bring a fraction of the cells per field outside of focus, we set a threshold to count only cells that have at least 1/10 of the average number of […] detected in the untreated wells for each cell type (3-4 puncta/cell in the case of NIH3T3 and N2a cells and 5 puncta/cell in primary human fibroblasts). […] Slices were mounted in DAPI-Fluoromount-G to highlight the cell nucleus and allow quantification of puncta per cell. Images were acquired in x-y-z planes with an Axiovert 200 fluorescence microscope (Carl Zeiss Ltd) with a ×63 objective and 1.4 numerical aperture, mounted with an ApoTome.2 slider or with a Confocal microscope (TCS SP5; Leica) using an HCX Plan Apo CS×63.0 1.40 NA oil objective and the Leica Application Suite X (LAS X).

KFERQ-Dendra mice = experiment: CMA activation in vivo in KFERQ-Dendra mice; set-up: species or system mouse; conditions: i.p. 30 mg/kg bw daily, three days
Source text: Animals: C57BL/6J mice wild-type (WT) and homozygous for the Pde6 mutation (rd10 mouse model of retinal degeneration) were obtained from The Jackson Laboratory. C57BL/6 KFERQ-Dendra mice were generated by back-crossing FVB KFERQ-Dendra mice with wild-type C57BL/6 mice for 8 generations. Both male and female animals were used in this study in equal distribution groups. However, results from both sexes were pooled, because of absence of significant differences in any of the parameters analyzed after statistical analysis with a mixed model of two-way ANOVA sex and treatment as independent variables and the corresponding measure as dependent variable. […]
CMA activity: Cells were transduced with lentivirus carrying the KFERQ-PS-Dendra reporter as before. […] Images were quantified using the manufacturer's software in a minimum of 1,200 cells in 9 independent fields per well. […] To avoid con-funding effects for drug-induced changes in cell volume or adherence to the plate that could bring a fraction of the cells per field outside of focus, we set a threshold to count only cells that have at least 1/10 of the average number of […] detected in the untreated wells for each cell type (3-4 puncta/cell in the case of NIH3T3 and N2a cells and 5 puncta/cell in primary human fibroblasts). […] Slices were mounted in DAPI-Fluoromount-G to highlight the cell nucleus and allow quantification of puncta per cell. […]

human cells = experiment: CMA activity, KFERQ-PS-Dendra reporter in human cells; format: cell-based
Method: as §1, §2

Row | Compound | CMA activation after washout (NIH3T3 cells) | CMA activating effect upon knock-down of NCoR1 (NIH3T3 cells) | CMA activation (NIH3T3 cells) | intracellular rates of degradation of long-lived proteins (NIH3T3) | half-life ([1]; male, ICR (CD-1), mouse, plasma, intravenous, 1 mg/kg, route not printed (second pair of values), read-out: half-life in plasma (converted)) | blood brain barrier crossing [1] | half-life in brain ([1]; IV 1 mg/kg) | half-life in brain ([1]; PO 30 mg/kg) | half-life in plasma ([1]; PO 30 mg/kg) | brain to plasma ratio [1] | CMA activation (neuron-related cells) | CMA activation in vivo (KFERQ-Dendra mice) | CMA activation (human cells) | CMA activation after removal of compound (neuron-related cells; compound removed from the media)
1 | Clc1ccc2c(c1)OCC(c1ccc(-c3ccccc3)cc1)=N2 [CA39] | activation was still noticeable | completely ablated the activating effect | activate CMA in a time and dose-dependent manner with higher potency than AR7 | remained upregulated 24 h after adding | 8.2 h | efficiently crossed the brain blood barrier | 8 h | 10 h | 7.5 h | high | efficiently activate CMA | activate CMA with comparable potency in vivo both in peripheral blood cells and in multiple organs | efficiently activate CMA | –
2 | CC(=O)Nc1ccc(C2=Nc3ccc(Cl)cc3OC2)cc1 [CA77] | activation was still noticeable | completely ablated the activating effect | activate CMA in a time and dose-dependent manner with higher potency than AR7 | remained upregulated 24 h after adding | – | efficiently crossed the brain blood barrier | 1.8 h | 4.2 h | 2.2 h | high | efficiently activate CMA | activate CMA with comparable potency in vivo both in peripheral blood cells and in multiple organs | efficiently activate CMA | persisted and even further increased after the compound was removed from the media
